Assay results published in patent US8097641B2, “Heterocyclyl substituted tetrahydronaphthalene derivatives as 5-HT7 receptor ligands” (Laboratorios del Dr. Esteve, S.A., priority 2007, dated 2012).
Structures can show the parent of a compound that is named as a salt.

Molecular target: T1, Cloned Human Serotonin Receptor, Subtype 7 (h5HT7) (Homo sapiens, UniProt P34969)
T1 construct: purchased PerkinElmer 6120512; host or cells: CHO cells (membranes coated on Basic FlashPlate SMP200)
Experiment: Radioligand binding assay, cloned human serotonin receptor subtype 7 (h5HT7) expressed in CHO cells, [125I]LSD
Settings: for IC50: [125I]LSD 0.82 nM, h5HT7 membranes from CHO cells, read-out: 5-HT7 IC50; for inhibition at 1 µM: compound at 10^−6 M, read-out: 5-HT7 %-Inhib. (10^−6 M)
Protocol: Radioligand binding assays were performed using the Cloned Human Serotonin Receptor, Subtype 7 (h5HT7), expressed in CHO cells, coated on Flashplate (Basic FlashPlate Cat.: SMP200) from PerkinElmer (Cat.: 6120512). The protocol assay was essentially the recommended protocol in the Technical Data Sheet by PerkinEmer Life and Analytical Sciences. The Mass membrane protein/well was typically 12 μg and the Receptor/well was about 9-10 fmoles. The Flashplate were let equilibrate at room temperature for one hour before the addition of the components of the assay mixture. The binding buffer was: 50 mM Tris-HCl, pH 7.4, containing 10 mM MgCl2, 0.5 mM EDTA and 0.5% BSA. The radioligand was [^125I]LSD at a final concentration of 0.82 nM. Nonspecific binding was determined with 50 μM of Clozapine. The assay volume was 25 μl. TopSeal-A were applied onto Flashplate microplates and they were incubated at room temperature for 240 minutes in darkness. The radioactivity were quantified by liquid scintillation spectrophotometry (Wallac 1450 Microbeta Trilux) with a count delay of 4 minutes prior to counting and a counting time of 30 seconds per well. Competition binding data were analyzed by using the LIGAND program (Munson and Rodbard, LIGAND: A versatile, computerized approach for characterization of ligand-binding systems. Anal. Biochem. 107: 220-239, 1980) and assays were performed in triplicate determinations for each point.

T1 sequence (P34969 whole entry): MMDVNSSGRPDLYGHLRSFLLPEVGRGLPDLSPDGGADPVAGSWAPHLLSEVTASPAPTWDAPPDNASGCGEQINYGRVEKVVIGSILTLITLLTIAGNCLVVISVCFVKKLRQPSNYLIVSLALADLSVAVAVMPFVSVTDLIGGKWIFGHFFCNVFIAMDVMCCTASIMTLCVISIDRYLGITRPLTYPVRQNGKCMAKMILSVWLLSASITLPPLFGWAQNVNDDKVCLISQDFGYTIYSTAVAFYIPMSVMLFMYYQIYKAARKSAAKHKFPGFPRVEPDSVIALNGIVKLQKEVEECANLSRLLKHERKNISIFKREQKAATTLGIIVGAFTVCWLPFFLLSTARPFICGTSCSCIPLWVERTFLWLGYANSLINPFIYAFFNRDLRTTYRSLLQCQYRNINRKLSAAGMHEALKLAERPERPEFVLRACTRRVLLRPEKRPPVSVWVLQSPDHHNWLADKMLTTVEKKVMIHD

Row | Compound | IC50 [nM] | inhibition at 1 µM [%] | inhibition at 0.1 µM (compound at 10^−7 M, read-out: 5-HT7 %-Inhib. (10^−7 M)) [%]
1 | Cc1nn(C)c(C)c1-c1cccc2c1CC[C@H](N(C)Cc1ccccc1)C2 [Example F, (2S)-Benzyl-methyl-[5-(1,3,5-trimethyl-1H-pyrazol-4-yl)-1,2,3,4-tetrahydro-naphthalen-2-yl]-amine] | 187 | – | –
2 | Cc1nn(C)c(C)c1-c1cccc2c1CC[C@H](N)C2 [Example O, (2S)-5-(1,3,5Trimethyl-1H-pyrazol-4-yl)-1,2,3,4-tetrahydro-naphthalen-2-ylamine dihydrochloride] | 25 ± 3.8 | 79 | 47.2
3 | Cc1nn(C)c(C)c1-c1cccc2c1CC[C@H](NC(C)C)C2 [Example P, (2S)-Isopropyl-[5-(1,3,5-trimethyl-1H-pyrazol-4-yl)-1,2,3,4-tetrahydro-naphthalen-2-yl]-amine] | 587 ± 10 | 61.7 | –
